“Also recorded” adds a separate entry of the source.
Experiments:
[1] = system: subject with major neurocognitive disorder of the Alzheimer type, APOE4 homozygous; test: Compassionate use study (Expanded Access IND), clinical response and tolerability; assay type: in vivo, human; conditions: n=1
Procedure: A subject who received a diagnosis of major neurocognitive disorder of the Alzheimer type was treated with ALZ-801 as part of a compassionate use study. The subject was a APOE4 homozygous and had received standard cognitive enhancing medications and was enrolled in a trial of an amyloid immunotherapy agent, but without benefit, and had no treatment options.
The subject was orally administered ALZ-801 at a dose of 265 mg BID for approximately 14 months (61 weeks, 2 days). […] For example, their motor skills improved as they made efforts to brush their teeth, get dressed, and bathe […]. They also were able to hold a phone to their […] and was walking and eating better. They were not able or willing to do the above prior to treatment with 265 mg BID ALZ-801. Further, their mood was noticeably more cheerful and content, and their verbal communication advanced. However, by the later end of the first 12-months of treatment, the improvement in the subject's symptoms plateaued and there was a decline in their cognitive status. They became apathetic, less verbal, and could no longer follow instructions.
At 62 weeks, 6 days of treatment, the dosage of ALZ-801 was increased from 265 mg BID to 265 mg TID. Remarkably, their plateau and decline in cognition ended upon commencement of the 265 mg TID dosage regimen. They were more talkative, happier, and not only completed the tasks they accomplished while on 265 mg BID ALZ-801, but improved beyond that. They understand the context of conversation and behave in a more “normal” or “natural” manner. […] A similar plateau or decline in cognitive status as observed with an ALZ-801 dosage of 265 mg BID began to manifest approximately 12 months after the beginning of the 265 mg TID ALZ-801 dosing. The subject remained on 265 mg TID ALZ-801 for approximately three more months (15 months total) until their dosage was increased to 265 mg QID (four time a day) ALZ-801, which they have maintained for the past seven months. […] Their caretakers have noted that the patient's disposition and alertness has improved, they are more responsive, more cooperative and has improved interaction with the caretakers.

[2] = Steady-state plasma tramiprosate pharmacokinetics, expanded access subject, TID and QID; assay type: in vivo, human; conditions: BID vs TID vs QID, 265 mg per dose
Text: The steady state pharmacokinetics of the TID and QID dosing regimen in the patient has been assayed for area under the curve (AUC) and maximum concentration (Cmax) of plasma tramiprosate (the active form of ALZ-801) and compared to BID dosing values in a population of patients in a Phase 2 human clinical trial of ALZ-801. Once the patient reaches steady state on a particular dosing regimen (any time after day 7 of a particular dosing regimen), a blood sample was collected just prior to the administration of a dose of AZL-801 and then again at 1, 2 and 4 hours post-administration of that dose. Plasma was isolated from the sample by centrifugation and the plasma samples were frozen and shipped to a bioanalytical lab for determination of tramiprosate concentrations (active moiety of ALZ-801) and calculation of AUC and Cmax. The values obtained from the plasma were then used to calculate projected brain AUC.

CC(C)[C@H](N)C(=O)NCCCS(=O)(=O)O [ALZ-801, valyl-3-amino-1-propanesulfonic acid]
duration of improvement and stabilization before plateau/decline ([1]; oral 265 mg BID): about 58 weeks
tolerability / side effects ([1]; oral 265 mg QID): well-tolerated with no associated nausea or noticeable side effects; also recorded: well tolerated
time to plateau or decline in cognitive status after start of dosing ([1]; oral 265 mg TID): approximately 12 months
tolerability / side effects ([1]; oral 265 mg TID): without out noticeable side effects; also recorded: well-tolerated
dose proportionality of plasma AUC and Cmax (tramiprosate) [2]: dose proportional increases in plasma AUC and Cmax
